# pKd: −log10 of the molar value.
# Target: Sts-1PGM (suppressor of T-cell receptor signaling-1 PGM domain) (Mus musculus, UniProt Q8BGG7, E490Q/H380C)
# Test: biochemical
# Chain of Sts-1PGM (suppressor of T-cell receptor signaling-1 PGM domain) (Q8BGG7 369-638 H380C/E490Q): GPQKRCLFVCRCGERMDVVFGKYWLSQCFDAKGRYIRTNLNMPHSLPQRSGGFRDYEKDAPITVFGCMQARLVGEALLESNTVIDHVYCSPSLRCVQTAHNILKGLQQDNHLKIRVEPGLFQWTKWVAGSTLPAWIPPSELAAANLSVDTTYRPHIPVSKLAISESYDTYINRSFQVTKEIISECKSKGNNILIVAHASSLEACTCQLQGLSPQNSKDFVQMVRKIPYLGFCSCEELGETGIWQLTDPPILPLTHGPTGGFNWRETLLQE
structure (smiles),measurement,value
COc1ccc2c(c1)Oc1cc(OP(=O)(O)O)ccc1C21OC(=O)c2ccccc21 (stereo not shown) [OMFP],pKd,5.24

# — article PMC3968691 (The FEBS journal, 2013)
